Experimental findings from patent US11084814B2, “Pyrido[3, 4-d]pyrimidine derivative and pharmaceutically acceptable salt thereof” (Teijin Pharma Limited, priority 2016, dated 2021) are described below.

The target of one assay is T1, CDK2/cyclin A2 (Homo sapiens, UniProt P24941).
T1 construct: purchased Carna Biosciences, Inc. QS S Assist CDK2/Cyclin A2_FP Kit
Briefly: Human CDK2/cyclin A2 inhibitory activity (QS S Assist CDK2/Cyclin A2_FP Kit, IMAP fluorescent polarization). It is filed as biochemical. The note with it: read-out: CDK2 Activity symbol. An outline of the steps: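 Kit CDK2/cyclin A2 (2.5 ng/well) was reacted with kit ATP/substrate/metal in 20 mM HEPES pH 7.4, 0.01% Tween 20 and 2 mM DTT for 60 min at room temperature. IMAP binding reagent was added for 30 min, then fluorescence polarization was read at 485/535 nm. IC50 came from dose-response fitting of percent inhibition.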

Another assay concerns the target T2, CDK4/cyclin D3 (Homo sapiens, UniProt P11802).
T2 construct: purchased Carna Biosciences, Inc. QS S Assist CDK4/Cyclin D3_FP Kit
Briefly: Human CDK4/cyclin D3 inhibitory activity (QS S Assist CDK4/Cyclin D3_FP Kit, IMAP fluorescent polarization). It is filed as biochemical. The note with it: read-out: CDK4 Activity symbol. An outline of the steps:
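Kinase reactions used kit CDK4/cyclin D3 at 12.5–25 ng/well with the kit ATP/substrate/metal mix in 20 mM HEPES (pH 7.4), 0.01% Tween20 and 2 mM DTT, run 45 min at room temperature. Phosphorylation was detected by IMAP fluorescence polarization (ex 485/em 535 nm) after 30 min binding in the dark. IC50 was fitted from percent inhibition against DMSO controls with and without enzyme.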

T2 sequence (P11802 whole entry): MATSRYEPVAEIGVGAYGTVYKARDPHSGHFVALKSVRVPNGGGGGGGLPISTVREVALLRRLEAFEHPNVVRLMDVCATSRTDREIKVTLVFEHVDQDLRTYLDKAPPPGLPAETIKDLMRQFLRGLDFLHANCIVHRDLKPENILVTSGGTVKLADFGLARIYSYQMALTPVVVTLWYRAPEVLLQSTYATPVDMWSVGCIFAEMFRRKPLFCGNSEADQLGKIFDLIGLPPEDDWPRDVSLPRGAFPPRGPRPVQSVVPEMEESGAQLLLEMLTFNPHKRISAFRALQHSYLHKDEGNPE
T2 sequence (P30281 whole entry partner): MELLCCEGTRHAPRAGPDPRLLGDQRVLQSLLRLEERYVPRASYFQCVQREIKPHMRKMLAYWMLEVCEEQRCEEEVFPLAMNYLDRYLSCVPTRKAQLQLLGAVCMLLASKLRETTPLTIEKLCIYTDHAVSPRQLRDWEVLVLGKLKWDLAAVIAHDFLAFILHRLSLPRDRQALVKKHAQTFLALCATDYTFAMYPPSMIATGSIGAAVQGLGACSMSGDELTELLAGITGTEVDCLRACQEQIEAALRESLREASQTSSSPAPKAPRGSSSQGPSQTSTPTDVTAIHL

Consider `C[C@@H](O)c1cc2cnc(Nc3ccc4c(n3)CCN(C(=O)CN3CCC3)C4)nc2c(N2C3CCC2CC3)n1` [Compound 230], for which the IC50 at CDK2/cyclin A2 is not below 100 nM; on CDK4/cyclin D3 it was less than 10 nM.

Turning to `C[C@@H](O)c1cc2cnc(Nc3ccc4c(n3)CCN(C(=O)CN3CC[C@@H](F)C3)C4)nc2c(N2C3CCC2CC3)n1` [Compound 231], the IC50 at CDK2/cyclin A2 was not below 100 nM; at CDK4/cyclin D3, less than 10 nM.

Consider `C[C@@H](O)c1cc2cnc(Nc3ccc4c(n3)CCN(C(=O)CN3CC[C@@H](O)C3)C4)nc2c(N2C3CCC2CC3)n1` [Compound 232], for which the IC50 at CDK2/cyclin A2 was not below 100 nM; at CDK4/cyclin D3, less than 10 nM.

In the case of `C[C@@H](O)c1cc2cnc(Nc3ccc4c(n3)CCN(C(=O)CN3CC[C@H](O)C3)C4)nc2c(N2C3CCC2CC3)n1` [Compound 233], the IC50 was not below 100 nM on CDK2/cyclin A2 and less than 10 nM at CDK4/cyclin D3.

`C[C@@H](O)c1cc2cnc(Nc3ccc4c(n3)CCN(C(=O)CNC3COC3)C4)nc2c(N2C3CCC2CC3)n1` [Compound 234]: the IC50 is not below 100 nM on CDK2/cyclin A2 and 10 to 100 nM at CDK4/cyclin D3.

For `C[C@@H](O)c1cc2cnc(Nc3ccc4c(n3)CCN(C(=O)CN3CC(F)C3)C4)nc2c(N2C3CCC2CC3)n1` [Compound 235], the IC50 at CDK2/cyclin A2 was not below 100 nM; on CDK4/cyclin D3, less than 10 nM.

As for `CC(O)c1cc2cnc(Nc3ccc4c(n3)CCN(C(=O)CN3CC5(COC5)C3)C4)nc2c(N2C3CCC2CC3)n1` (stereo not drawn) [Compound 236], the IC50 was not below 100 nM on CDK2/cyclin A2 and less than 10 nM at CDK4/cyclin D3.

As to `C[C@@H](O)c1cc2cnc(Nc3ccc4c(n3)CCN(C(=O)[C@@H]3CCCCN3C)C4)nc2c(N2C3CCC2CC3)n1` [Compound 237], the IC50 at CDK2/cyclin A2 was not below 100 nM; at CDK4/cyclin D3, less than 10 nM.

Turning to `CC(O)c1cc2cnc(Nc3ccc4c(n3)CCN(C(=O)C3CCCCN3C)C4)nc2c(N2C3CCC2CC3)n1` (stereo not drawn) [Compound 238], the IC50 was not below 100 nM on CDK2/cyclin A2 and less than 10 nM at CDK4/cyclin D3.

Take `C[C@@H](O)c1cc2cnc(Nc3ccc4c(n3)CCN(C(=O)C3CN(C)C3)C4)nc2c(N2C3CCC2CC3)n1` [Compound 239]: the IC50 is not below 100 nM on CDK2/cyclin A2 and less than 10 nM on CDK4/cyclin D3.

`C[C@@H](O)c1cc2cnc(Nc3ccc4c(n3)CCN(C3CN(C)C3)C4)nc2c(N2C3CCC2CC3)n1` [Compound 240]: the IC50 on CDK2/cyclin A2 was not below 100 nM; on CDK4/cyclin D3, less than 10 nM.

For the compound `C[C@@H](O)c1cc2cnc(Nc3ccc(O[C@H]4CCCNC4)cn3)nc2c(N2CCCCC2)n1` [Compound 241], the IC50 was not below 100 nM on CDK2/cyclin A2 and less than 10 nM at CDK4/cyclin D3.

On to `CC(O)c1cc2cnc(Nc3ccc(OC4CCCNC4)cn3)nc2c(N2C3CCC2CC3)n1` (stereo not drawn) [Compound 242], for which the IC50 was not below 100 nM at CDK2/cyclin A2 and less than 10 nM on CDK4/cyclin D3.

For `C[C@@H](O)c1cc2cnc(Nc3ccc(OC4CCNCC4)cn3)nc2c(N2CCC[C@H](F)C2)n1` [Compound 243], the IC50 was not below 100 nM on CDK2/cyclin A2 and less than 10 nM on CDK4/cyclin D3.

For `O=C1CCNCCN1c1ccc(Nc2ncc3cc(CO)nc(N4CCCCC4)c3n2)nc1` [Compound 244], the IC50 at CDK2/cyclin A2 is not below 100 nM; on CDK4/cyclin D3, less than 10 nM.

As for `CC[C@@H](O)c1cc2cnc(Nc3ccc(N4CCNCC4=O)cn3)nc2c(N2CCC[C@H]2C)n1` [Compound 245], the IC50 was not below 100 nM on CDK2/cyclin A2 and less than 10 nM at CDK4/cyclin D3.

As to `CC[C@H](O)c1cc2cnc(Nc3ccc(N4CCNCC4=O)cn3)nc2c(N2CCC[C@H]2C)n1` [Compound 246], the IC50 is not below 100 nM on CDK2/cyclin A2 and less than 10 nM at CDK4/cyclin D3.

For the compound `CC[C@@H](O)c1cc2cnc(Nc3ccc(CN4CCN(CCO)CC4)cn3)nc2c(N2CCC[C@H]2C)n1` [Compound 247], the IC50 at CDK2/cyclin A2 is not below 100 nM; at CDK4/cyclin D3, less than 10 nM.

As for `CC[C@H](O)c1cc2cnc(Nc3ccc(CN4CCN(CCO)CC4)cn3)nc2c(N2CCC[C@H]2C)n1` [Compound 248], the IC50 was not below 100 nM at CDK2/cyclin A2 and less than 10 nM at CDK4/cyclin D3.

As for `C[C@@H](O)c1cc2cnc(Nc3ccc(CN4CCN(CCO)C(=O)C4)cn3)nc2c(N2CCCCC2)n1` [Compound 249], the IC50 on CDK2/cyclin A2 is not below 100 nM; at CDK4/cyclin D3, 10 to 100 nM.

Take `C[C@@H](O)c1cc2cnc(Nc3ccc(O[C@H]4CCCNC4)cn3)nc2c(N2CC[C@@H](F)C2)n1` [Compound 250]: the IC50 at CDK2/cyclin A2 was not below 100 nM; on CDK4/cyclin D3 it was less than 10 nM.

For `C[C@@H](O)c1cc2cnc(Nc3ccc(O[C@H]4CCCNC4)cn3)nc2c(N2CCC[C@H](F)C2)n1` [Compound 251], the figures for the IC50 on CDK2/cyclin A2 and at CDK4/cyclin D3 were not below 100 nM and less than 10 nM, respectively.

As to `C[C@@H](O)c1cc2cnc(Nc3ccc(O[C@H]4CCCN(CCO)C4)cn3)nc2c(N2CCCCC2)n1` [Compound 252], the IC50 at CDK2/cyclin A2 was not below 100 nM; at CDK4/cyclin D3 it was less than 10 nM.

Consider `C[C@@H](O)c1cc2cnc(Nc3ccc(O[C@H]4CCCN(CCO)C4)cn3)nc2c(N2C3CCC2CC3)n1` [Compound 253], for which the results for the IC50 on CDK2/cyclin A2 and on CDK4/cyclin D3 were not below 100 nM and less than 10 nM, respectively.

For the compound `C[C@@H](O)c1cc2cnc(Nc3ccc(O[C@H]4CCCN(CCO)C4)cn3)nc2c(N2CC[C@@H](F)C2)n1` [Compound 254], the IC50 is not below 100 nM at CDK2/cyclin A2 and less than 10 nM on CDK4/cyclin D3.

Regarding `C[C@@H](O)c1cc2cnc(Nc3ccc(O[C@H]4CCCN(CCO)C4)cn3)nc2c(N2CCC[C@H](F)C2)n1` [Compound 255], the results for the IC50 at CDK2/cyclin A2 and on CDK4/cyclin D3 were not below 100 nM and less than 10 nM, respectively.

For `C[C@@H](O)c1cc2cnc(Nc3ccc(N4CCNCC4=O)cn3)nc2c(N2C3CCC2CC3)n1` [Compound 256], the IC50 at CDK2/cyclin A2 was not below 100 nM; at CDK4/cyclin D3 it was less than 10 nM.

Turning to `C[C@H]1CCN(c2nc([C@@H](C)O)cc3cnc(Nc4ccc(N5CCNCC5=O)cn4)nc23)C1` [Compound 257], the IC50 on CDK2/cyclin A2 is not below 100 nM; on CDK4/cyclin D3 it was less than 10 nM.

In the case of `C[C@H]1CCN(c2nc([C@@H](C)O)cc3cnc(Nc4ccc(N5CCCNCC5=O)cn4)nc23)C1` [Compound 258], the IC50 on CDK2/cyclin A2 is not below 100 nM; at CDK4/cyclin D3, less than 10 nM.

In the case of `C[C@@H](O)c1cc2cnc(Nc3ccc(N4CCN(CCS(C)(=O)=O)CCC4=O)cn3)nc2c(N2CCCCC2)n1` [Compound 259], the IC50 on CDK2/cyclin A2 is not below 100 nM; on CDK4/cyclin D3, less than 10 nM.

In the case of `Cc1nc(Nc2ncc3cc([C@@H](C)O)nc(N4CCCCC4)c3n2)ccc1N1CCNCC1=O` [Compound 260], the values for the IC50 on CDK2/cyclin A2 and on CDK4/cyclin D3 were not below 100 nM and less than 10 nM, respectively.

As for `Cc1nc(Nc2ncc3cc([C@@H](C)O)nc(N4CC[C@H](C)C4)c3n2)ccc1N1CCNCC1=O` [Compound 261], the IC50 is not below 100 nM on CDK2/cyclin A2 and less than 10 nM at CDK4/cyclin D3.

Take `C[C@@H](O)c1cc2cnc(Nc3ccc4c(n3)CCN(C(=O)CN3CCC(O)CC3)C4)nc2c(N2C3CCC2CC3)n1` [Compound 262]: the IC50 is not below 100 nM on CDK2/cyclin A2 and less than 10 nM at CDK4/cyclin D3.

As to `C[C@@H](O)c1cc2cnc(Nc3ccc4c(n3)CCN(C(=O)CN3CCN(CCO)CC3)C4)nc2c(N2C3CCC2CC3)n1` [Compound 263], the IC50 is not below 100 nM at CDK2/cyclin A2 and less than 10 nM on CDK4/cyclin D3.

Take `C[C@@H](O)c1cc2cnc(Nc3ccc4c(n3)CCN(C(=O)CN3CCN(C)CC3)C4)nc2c(N2C3CCC2CC3)n1` [Compound 264]: the IC50 at CDK2/cyclin A2 is not below 100 nM; at CDK4/cyclin D3, less than 10 nM.

As to `C[C@@H](O)c1cc2cnc(Nc3ccc4c(n3)CCN(C(=O)CN3CC5(CN(C)C5)C3)C4)nc2c(N2C3CCC2CC3)n1` [Compound 265], the figures for the IC50 at CDK2/cyclin A2 and on CDK4/cyclin D3 were not below 100 nM and less than 10 nM, respectively.
